Measurements reported in patent US10202365B2, “2-(pyridin-3-yl)-pyrimidine derivatives as RET inhibitors” (BLUEPRINT MEDICINES CORPORATION, priority 2015, dated 2019).

The molecules below were run against wild type RET (Homo sapiens (Human), UniProt P07949) (assay: RET Wild Type Assay at KM (Caliper electrophoretic mobility shift)). Conditions: 25 μM ATP, 25° C., 120 minutes.
Assay type: biochemical

wild type RET, sequence (P07949 29-1114): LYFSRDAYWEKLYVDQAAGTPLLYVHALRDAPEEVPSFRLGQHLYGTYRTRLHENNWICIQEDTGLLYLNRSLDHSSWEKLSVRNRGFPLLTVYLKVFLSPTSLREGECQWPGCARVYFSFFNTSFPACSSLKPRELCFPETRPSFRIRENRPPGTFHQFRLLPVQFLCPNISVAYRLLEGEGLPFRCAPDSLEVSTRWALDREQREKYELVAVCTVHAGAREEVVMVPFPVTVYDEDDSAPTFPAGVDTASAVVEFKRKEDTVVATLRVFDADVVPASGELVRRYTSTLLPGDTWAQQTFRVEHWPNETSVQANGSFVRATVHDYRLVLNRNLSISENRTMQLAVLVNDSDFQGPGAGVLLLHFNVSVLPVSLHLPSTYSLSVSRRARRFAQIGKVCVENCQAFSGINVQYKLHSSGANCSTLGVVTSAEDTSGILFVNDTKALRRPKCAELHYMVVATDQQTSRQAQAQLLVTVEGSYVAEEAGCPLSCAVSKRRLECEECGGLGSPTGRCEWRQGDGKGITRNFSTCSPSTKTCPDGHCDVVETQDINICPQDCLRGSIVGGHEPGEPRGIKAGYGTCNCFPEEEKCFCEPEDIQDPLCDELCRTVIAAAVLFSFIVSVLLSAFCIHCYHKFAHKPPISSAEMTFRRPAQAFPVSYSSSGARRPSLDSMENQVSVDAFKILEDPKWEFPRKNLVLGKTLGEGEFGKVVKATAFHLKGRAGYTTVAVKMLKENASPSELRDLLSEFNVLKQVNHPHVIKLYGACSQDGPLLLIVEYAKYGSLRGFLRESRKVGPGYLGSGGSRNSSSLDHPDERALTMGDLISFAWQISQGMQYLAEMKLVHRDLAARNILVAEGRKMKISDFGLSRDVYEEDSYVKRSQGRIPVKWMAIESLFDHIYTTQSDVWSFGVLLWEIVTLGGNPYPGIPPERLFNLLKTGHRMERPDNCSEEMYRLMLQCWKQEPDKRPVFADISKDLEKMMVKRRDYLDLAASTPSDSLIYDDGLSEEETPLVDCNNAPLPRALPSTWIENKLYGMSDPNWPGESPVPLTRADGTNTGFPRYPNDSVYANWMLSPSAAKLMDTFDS

| Structure (SMILES) | IC50 |
| --- | --- |
| Cc1cc(Nc2cc(C)[nH]n2)nc(-c2ccc(C(=O)NCc3ccoc3)nc2)n1 [Compound 1] | 0.01 to 0.1 µM |
| Cc1cc(Nc2cc(C)[nH]n2)nc(-c2ccc(C(=O)NCc3cncs3)nc2)n1 [Compound 3] | > 0.1 µM |
| Cc1cc(Nc2cc(C)[nH]n2)nc(-c2ccc(C(=O)N3Cc4ccccc4C3)nc2)n1 [Compound 4] | 0.01 to 0.1 µM |
| Cc1ccc(CNC(=O)c2ccc(-c3nc(C)cc(Nc4cc(C)[nH]n4)n3)cn2)cc1 [Compound 5] | 0.01 to 0.1 µM |
| Cc1cc(Nc2cc(C)[nH]n2)nc(-c2ccc(C(=O)N[C@H](C)c3ccccc3)nc2)n1 [Compound 6] | > 0.1 µM |
| Cc1ccc(CNC(=O)c2ccc(-c3nc(C)cc(Nc4cc(C)[nH]n4)n3)cn2)nc1 [Compound 7] | 0.01 to 0.1 µM |
| Cc1cc(Nc2cc(C)[nH]n2)nc(-c2ccc(C(=O)NCc3cccc(F)c3)nc2)n1 [Compound 8] | > 0.1 µM |
| Cc1cc(Nc2cc(C)[nH]n2)nc(-c2ccc(C(=O)NCc3ccc(F)cc3)nc2)n1 [Compound 9] | 0.01 to 0.1 µM |
| Cc1cc(Nc2cc(C)[nH]n2)nc(-c2ccc(C(=O)NCc3ccc(Cl)cc3)nc2)n1 [Compound 11] | 0.01 to 0.1 µM |
| CCOc1ccc(CNC(=O)c2ncc(-c3nc(C)cc(Nc4cc(C)[nH]n4)n3)cc2C)cc1 [Compound 13] | 0.01 to 0.1 µM |
| CCOc1ccc([C@@H](C)NC(=O)c2ncc(-c3nc(C)cc(Nc4cc(C)[nH]n4)n3)cc2C)cc1 [Compound 16] | > 0.1 µM |
| CCOc1ccc([C@H](C)NC(=O)c2ncc(-c3nc(C)cc(Nc4cc(C)[nH]n4)n3)cc2C)cc1 [Compound 17] | > 0.1 µM |
| Cc1cnn(-c2ccc(CNC(=O)c3ccc(-c4nc(C)cc(Nc5cc(C)[nH]n5)n4)cn3)cn2)c1 [Compound 18] | < 0.01 µM |
| Cc1cc(Nc2cc(C)[nH]n2)nc(-c2cnc(C(=O)NCc3ccc(-n4cccn4)nc3)c(C)c2)n1 [Compound 19] | < 0.01 µM |
| Cc1cc(Nc2cc(C)[nH]n2)nc(-c2ccc(C(=O)NCc3cnc(-n4cc(F)cn4)cn3)nc2)n1 [Compound 21] | < 0.01 µM |
| Cc1cc(Nc2cc(C)[nH]n2)nc(-c2ccc(C(=O)NCc3ccc(-n4cc(C#N)cn4)nc3)nc2)n1 [Compound 22] | 0.01 to 0.1 µM |
| Cc1cc(Nc2cc(C)[nH]n2)nc(-c2cnc(C(=O)N[C@@H](C)c3ccc(-n4cccn4)nc3)c(C)c2)n1 [Compound 23] | < 0.01 µM |
| Cc1cc(Nc2cc(C)[nH]n2)nc(-c2ccc(C(=O)NCc3ccc(-n4nc(C)cc4C)nc3)nc2)n1 [Compound 24] | < 0.01 µM |
| Cc1cc(Nc2cc(C)[nH]n2)nc(-c2ccc(C(=O)N[C@@H](C)c3ccc(-n4cc(F)cn4)nc3)nc2)n1 [Compound 25, (S)—N-(1-(6-(4-fluoro-1H-pyrazol-1-yl)pyridin-3-yl)ethyl)-5-(4-methyl-6-((5-methyl-1H-pyrazol-3-yl)amino)pyrimidin-2-yl)picolinamide] | < 0.01 µM |
| Cc1cc(Nc2cc(C)[nH]n2)nc(-c2ccc(C(=O)NCc3ccc(-n4ccc(C5CC5)n4)nc3)nc2)n1 [Compound 26] | < 0.01 µM |
| Cc1cc(Nc2cc(C)[nH]n2)nc(-c2ccc(C(=O)NCc3ccc(-n4cc(C5CC5)cn4)nc3)nc2)n1 [Compound 27] | 0.01 to 0.1 µM |
| Cc1cc(Nc2cc(C)[nH]n2)nc(-c2ccc(C(=O)NCc3ccc(-n4cc(CCO)cn4)nc3)nc2)n1 [Compound 28] | 0.01 to 0.1 µM |
| Cc1cc(Nc2cc(C)[nH]n2)nc(-c2cnc(C(=O)N[C@@H](C)c3ccc(-n4cc(F)cn4)nc3)c(C)c2)n1 [Compound 29, (S)—N-(1-(6-(4-fluoro-1H-pyrazol-1-yl)pyridin-3-yl)ethyl)-3-methyl-5-(4-methyl-6-((5-methyl-1H-pyrazol-3-yl)amino)pyrimidin-2-yl)picolinamide] | < 0.01 µM |
| Cc1cc(Nc2cc(C)[nH]n2)nc(-c2cnc(C(=O)N[C@@H](C)c3ccc(-n4cc(F)cn4)nc3)c(F)c2)n1 [Compound 30, (S)-3-fluoro-N-(1-(6-(4-fluoro-1H-pyrazol-1-yl)pyridin-3-yl)ethyl)-5-(4-methyl-6-((5-methyl-1H-pyrazol-3-yl)amino)pyrimidin-2-yl)picolinamide] | < 0.01 µM |
| Cc1cc(Nc2cc(C)[nH]n2)nc(-c2ccc(C(=O)NCc3ccc(-n4cc(C(F)F)cn4)nc3)nc2)n1 [Compound 31] | 0.01 to 0.1 µM |
| Cc1cc(Nc2cc(C)[nH]n2)nc(-c2ccc(C(=O)NCc3ccc(-n4cc(C(F)F)c(C)n4)nc3)nc2)n1 [Compound 32] | 0.01 to 0.1 µM |
| CC[C@@H](NC(=O)c1ccc(-c2nc(C)cc(Nc3cc(C)[nH]n3)n2)cn1)c1ccc(-n2cc(F)cn2)nc1 [Compound 34] | < 0.01 µM |
